In experiment [1] the test system is full thickness cutaneous excisional wounds (punch biopsies). Kind of experiment: Human 3 mm punch biopsy wounds: re-epithelialisation. To be noted: single 100 μl intradermal dose 10-30 minutes before wounding, day 3, 44 wounds. Format: in vivo, humans. The procedure:
Medicaments of the invention were prepared using the constituents described above. […] 44 healthy subjects were recruited to the study, of whom, 40 were healthy males (aged 18-75 years) and 4 were post-menopausal females (aged 53-69 years). The average age of subjects recruited to this study was 42 years. The post-menopausal status of female subjects was confirmed by quantification of serum levels of oestradiol and follicle stimulating hormone (FSH). Serum levels of oestradiol were required to be […], and follicle stimulating hormone levels >31 IU/L. Each subject had four wounds treated with active drug, one corresponding to each of four concentrations of the medicaments produced. The test medicaments were each administered intradermally as a single dose at a volume of 100 μl (sufficient to treat 1 cm^2 of skin) per wound site (the upper, inner aspect of each arm), 10-30 minutes before wounding. Subjects received 3 mm punch biopsies at the sites where the medicaments had been administered. After wounding, all sites received moist wound healing dressings (Standard Care). Biopsy sites were excised, using a 5 mm punch biopsy, three days after wounding. […] Percentage re-epithelialisation for the new epithelium was calculated as a proportion of the total wound diameter. The average percentage re-epithelialisation value was calculated from the 44 wounds of each treatment group.

The subject of a further experiment is partial thickness wounds. As to the kind of experiment: Pig partial thickness wound healing model (model of split thickness skin graft donor sites). Format: in vivo, male Large White pigs. To be noted: 100 μl per cm^2 intradermal, five days after wounding, four pigs. The procedure:
Test medicaments were administered by intradermal injection to provide 100 μl of medicament per cm^2 to sites on experimental pigs where wounds were to be formed. Thus a total volume of 625 μl of the test medicament was administered per wound site. After administration of the medicaments 2.5 cm by 2.5 cm (6.25 cm^2) partial thickness wounds were made using a 25 mm dermatome (Nouvag) at a depth setting of 0.55 mm. A single wound was treated per animal, and each treatment group comprised four male Large White pigs. Animals were killed, and their wounds harvested, five days after wounding. The wounds were excised and treated for histology. […] After being allowed fixed for 48 hours wounded tissue was bisected into four even sections. All bisected sections were processed to wax and embedded into individual wax blocks. Tissue was sectioned through to the end of the block where at every 250 μm, a single slide containing a 5 μm thick section was prepared. […] For each section, the freehand epithelialised and freehand non-epithelialised distances were measured using image analysis; freehand epithelialised distance as a proportion of the sum of the epithelialised and non-epithelialised distances was calculated to produce a percentage re-epithelialisation value. Average percentage re-epithelialisation values were calculated per wound and per treatment group.

Experiment [2] relates to full thickness excisional wounds (punch biopsies). As to the kind of experiment: Rat full thickness excisional wound model (study 3): re-epithelialisation at test concentrations, injection 20 minutes before wounding. The class given is in vivo, adult male Sprague-Dawley rats. To be noted: intradermal 20 minutes before wounding, day 3, five rats. An excerpt:
Animals were killed, and their wounds harvested, three days after wounding. The wounds were excised and treated for histology. […] All histological assessments of early wound healing events were made using preserved 5 micron-thickness wound sections taken from the widest part of each excised biopsy site. Sections were stained with Haematoxylin and Eosin to aid visualisation of structural features, and measurements made using image analysis software. The distance traveled by the epithelium is derived from two histological measurements: the freehand total wound diameter and the freehand non-epithelialised wound diameter. The non-epithelialised diameter is subtracted from the total wound diameter, to determine the distance which the new epithelium has covered since the time of wounding. Percentage re-epithelialisation for the new epithelium was calculated as a proportion of the total wound diameter. The average percentage re-epithelialisation value was calculated from the wounds of the […] within each treatment group. […] 100 μl of the medicament to be tested was administered by intradermal injection at sites on the dorsal surface of experimental rats, 20 minutes prior to formation of a full thickness punch biopsy at the injected site. One injection and excisional wound was made per animal, and five adult male Sprague-Dawley rats used per treatment group. Acceleration of wound healing achieved using the test concentrations of the medicaments of the invention was investigated using the protocols set out under 1.1.4 above.

The mark [3] stands for this setting: 0.1 μg 17β-oestradiol/100 μl of medicament (0.0001% w/v).

As for `C[C@]12CC[C@@H]3c4ccc(O)cc4CC[C@H]3[C@@H]1CC[C@@H]2O` [17β-oestradiol], the “acceleration of re-epithelialisation (in words)” value in experiment [1] (setting [3]) and in experiment [1] (0.2 μg 17β-oestradiol/100 μl of medicament (0.0002% w/v)) was “particularly preferable ability to induce acceleration of re-epithelialisation” each time. Besides, the re-epithelialisation in the experiment with partial thickness wounds (0.1 μg 17β-oestradiol/100 μl of medicament) is listed as 98.15%; in the experiment with partial thickness wounds (0.2 μg 17β-oestradiol/100 μl of medicament) it was 98.56%; in experiment [2] (0.001 μg 17β-oestradiol/100 μl of medicament (0.000001% w/v)), 23.02%; in experiment [2] (0.01 μg 17β-oestradiol/100 μl of medicament (0.00001% w/v)), 29.03%; in experiment [2] (setting [3]), 29.95%; in experiment [2] (1 μg 17β-oestradiol/100 μl of medicament (0.001% w/v)), 14.63%. Besides, in experiment [2] (10 μg 17β-oestradiol/100 μl of medicament (0.01% w/v)), the re-epithelialisation is 10.30%.

For the origin of these results see US20080153794A1, “Medicaments and methods for wound healing” (RENOVO LIMITED, priority 2006, published 2008).
